Consider six compounds from patent publication US9260429B2, “Pyrido[3,4-B]indoles and methods of use” (Medivation Technologies, Inc., priority 2008, dated 2016).

In assay [1] the test system is cells treated with ionomycin. Conditions: after treatment with the cell toxin ionomycin; dose dependent; cited from earlier work.
For a further assay, the system named is brain cells (neurons). Conditions: preclinical models of Alzheimer's disease and Huntington's disease; cited from earlier work.
The subject of the next assay is neuronal cells. Particulars: cited from earlier work.
In assay [2] the target is T1, human recombinant dopamine D2L receptor (Homo sapiens, UniProt P14416).
T1 construct: expressed in transfected cells; host or cells: CHO cells
The assay is described as follows: Dopamine D2L radioligand binding ([3H]Spiperone). Particulars: 2 h, 1 μM ligand conc.; read-out: Percent Inhibition of ligand binding Dopamine (1 μM ligand conc.) D2L. The method, then: To evaluate in radioligand binding assays the activity of compounds of the invention, human recombinant dopamine D2L receptor expressed in Chinese hamster ovary (CHO) cells (Grandy, D. K. et al. Proc. Natl. Acad. Sci. USA. 86:9762, 1989; Hayes, G. et al., Mol. Endocrinol. 6:920, 1992) in a modified Tris-HCl buffer (50 mM Tris-HCl, pH 7.4, 1.4 mM Ascorbic Acid, 0.001% BSA, 150 mM NaCl) was used. Compounds of the invention were incubated with 0.16 nM [^3H]Spiperone for 120 minutes at 25° C. Non-specific binding was estimated in the presence of […] Haloperidol. Receptor proteins were filtered and washed, the filters were then counted to determine [^3H]Spiperone specifically bound. Compounds were screened at 1 μM or lower, using 1% DMSO as vehicle. Biochemical assay results are presented as the percent inhibition of specific binding in Table 4.

Assay [3] addresses T2, human recombinant histamine H2 receptor (Homo sapiens, UniProt P25021).
T2 construct: expressed in transfected cells; host or cells: CHO-K1 cells
As to the kind of experiment: Histamine H2 radioligand binding ([125I]Aminopotentidine). Conditions: 1 μM; inhibition of specific [125I]Aminopotentidine binding; read-out: Binding data (Percentage Inhibition) Histamine Binding (1 μM) H2. The method, then:
To evaluate in radioligand binding assays the activity of compounds of the invention, human recombinant histamine H2 receptor expressed in Chinese hamster ovary (CHO) K1 cells (Ruat, M., Proc. Natl. Acad. Sci. USA. 87(5):1658, 1990) in a 50 mM Phosphate buffer, pH 7.4 was used. Compounds of the invention were incubated with 0.1 nM [^125I]Aminopotentidine for 120 minutes at 25° C. Non-specific binding was estimated in the presence of 3 μM Tiotidine. Receptor proteins were filtered and washed, the filters were then counted to determine [^125I]Aminopotentidine specifically bound. Compounds were screened at 1 μM or lower, using 1% DMSO as vehicle. Biochemical assay results are presented as the percent inhibition of specific binding in Table 3.

Assay [4] concerns the target T3, human recombinant serotonin (5-Hydroxytryptamine) 5-HT7 receptor (Homo sapiens, UniProt P34969).
T3 construct: expressed in transfected cells; host or cells: CHO cells
As to the kind of experiment: Serotonin 5-HT7 radioligand binding ([3H]LSD). Particulars: 2 h; read-out: Percent Inhibition of ligand binding Serotonin (1 μM ligand concentration) 5-HT7. As for the experimental part:
To evaluate in radioligand binding assays the activity of compounds of the invention, human recombinant serotonin (5-Hydroxytryptamine) 5-HT7 receptor expressed in Chinese hamster ovary (CHO) cells (Roth, B. L. et al., J. Pharmacol. Exp. Ther. 268:1403, 1994; Shen, Y. et al., J. Biol. Chem. 268:18200, 1993) in a modified Tris-HCl buffer (50 mM Tris-HCl, pH 7.4, 10 mM MgCl2, 0.5 mM EDTA) was used. Compounds of invention were incubated with 5.5 nM [^3H]Lysergic acid diethylamide (LSD) for 2 hours at 25° C. Non-specific binding was estimated in the presence of […] Serotonin (5-HT). Receptor proteins were filtered and washed, the filters were then counted to determine [^3H]LSD specifically bound. Compounds were screened at 1 μM or lower, using 1% DMSO as vehicle. Biochemical assay results are presented as the percent inhibition of specific binding in Table 5.

Assay [5] concerns the target T4, human recombinant serotonin (5-Hydroxytryptamine) 5-HT2C receptor (Homo sapiens, UniProt P28335).
T4 construct: expressed in transfected cells; host or cells: CHO-K1 cells
T4 sequence (P28335 33-458): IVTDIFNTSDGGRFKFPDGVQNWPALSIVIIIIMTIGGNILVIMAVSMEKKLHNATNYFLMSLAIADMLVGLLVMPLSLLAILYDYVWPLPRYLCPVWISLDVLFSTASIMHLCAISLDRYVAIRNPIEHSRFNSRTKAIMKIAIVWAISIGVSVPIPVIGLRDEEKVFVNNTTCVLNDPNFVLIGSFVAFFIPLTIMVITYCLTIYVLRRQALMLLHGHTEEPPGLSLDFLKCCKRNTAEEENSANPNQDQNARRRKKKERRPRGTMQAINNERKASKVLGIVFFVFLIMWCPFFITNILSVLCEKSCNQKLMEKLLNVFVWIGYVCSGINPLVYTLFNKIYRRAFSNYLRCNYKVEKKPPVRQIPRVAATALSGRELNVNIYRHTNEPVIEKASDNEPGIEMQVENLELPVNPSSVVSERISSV
As to the kind of experiment: Serotonin 5-HT2C radioligand binding ([3H]Mesulergine). Particulars: 1 h; read-out: Percent Inhibition of ligand binding Serotonin (1 μM ligand concentration) 5-HT2C. The method, then:
Compounds of the invention were incubated with 1 nM [^3H]Mesulergine for 60 minutes at 25° C. Non-specific binding was estimated in the presence of 1 μM Mianserin. Receptor proteins were filtered and washed, the filters were then counted to determine [^3H]Mesulergine specifically bound. […] Biochemical assay results are presented as the percent inhibition of specific binding in Table 5.

The target of assay [6] is T5, human recombinant serotonin (5-Hydroxytryptamine) 5-HT2A receptor (Homo sapiens, UniProt P28223).
T5 construct: expressed in transfected cells; host or cells: CHO-K1 cells
The assay is described as follows: Serotonin 5-HT2A radioligand binding ([3H]Ketanserin). Particulars: 1 h; read-out: Percent Inhibition of ligand binding Serotonin (1 μM ligand concentration) 5-HT2A. The method, then:
To evaluate in radioligand binding assays the activity of compounds of the invention, human recombinant serotonin (5-Hydroxytryptamine) 5-HT2A receptor expressed in Chinese hamster ovary (CHO-K1) cells (Bonhaus, D. W. et al. Br. J. Pharmacol. 115:622, 1995; Saucier, C. and Albert, P. R., J. Neurochem. 68:1998, 1997) in a 50 mM Tris-HCl buffer, pH 7.4, was used. Compounds of the invention were incubated with 0.5 nM [^3H]Ketanserin for 60 minutes at 25° C. Non-specific binding was estimated in the presence of 1 μM Mianserin. Receptor proteins were filtered and washed, the filters were then counted to determine [^3H]Ketanserin specifically bound. Compounds were screened at 1 μM or lower, using 1% DMSO as vehicle. Biochemical assay results are presented as the percent inhibition of specific binding in Table 5.

The target in assay [7] is T6, human recombinant histamine H1 receptor (Homo sapiens, UniProt P35367).
T6 construct: expressed in transfected cells; host or cells: CHO cells
As to the kind of experiment: Histamine H1 radioligand binding ([3H]Pyrilamine). Particulars: 1 μM; read-out: Binding data (Percentage Inhibition) Histamine Binding (1 μM) H1. The method, then:
To evaluate in radioligand binding assays the activity of compounds of the invention, human recombinant histamine H1 receptor expressed in Chinese hamster ovary (CHO) cells (De Backer, M. D. et al., Biochem. Biophys. Res. Comm. 197(3):1601, 1993) in a modified Tris-HCl buffer (50 mM Tris-HCl, pH 7.4, 2 mM MgCl2, 100 mM NaCl, 250 mM Sucrose) was used. Compounds of the invention were incubated with 1.2 nM [^3H]Pyrilamine for 180 minutes at 25° C. Non-specific binding was estimated in the presence of 1 μM pyrilamine. Receptor proteins were filtered and washed, the filters were then counted to determine [^3H]Pyrilamine specifically bound. […] Biochemical assay results are presented as the percent inhibition of specific binding in Table 3.

Assay [8] addresses T7, human recombinant serotonin (5-Hydroxytryptamine) 5-HT6 receptor (Homo sapiens, UniProt P50406).
T7 construct: expressed in transfected cells; host or cells: human HeLa cells
The assay is described as follows: Serotonin 5-HT6 radioligand binding ([3H]LSD). Particulars: 2 h; read-out: Percent Inhibition of ligand binding Serotonin (1 μM ligand concentration) 5-HT6. As for the experimental part: To evaluate in radioligand binding assays the activity of compounds of the invention, human recombinant serotonin (5-Hydroxytryptamine) 5-HT6 receptor expressed in human HeLa cells (Monsma, F. J. Jr. et al., Mol. Pharmacol. 43:320, 1993) in a modified Tris-HCl buffer (50 mM Tris-HCl, pH 7.4, 150 mM NaCl, 2 mM Ascorbic Acid, 0.001% BSA) was used. Compounds of the invention were incubated with 1.5 nM [3H]Lysergic acid diethylamide (LSD) for 120 minutes at 37° C. Non-specific binding was estimated in the presence of […] Serotonin (5-HT). Receptor proteins were filtered and washed, the filters were then counted to determine [3H]LSD specifically bound. Compounds were screened at 1 μM or lower, using 1% DMSO as vehicle. Biochemical assay results are presented as the percent inhibition of specific binding in Table 5.

T5 sequence (P28223 whole entry): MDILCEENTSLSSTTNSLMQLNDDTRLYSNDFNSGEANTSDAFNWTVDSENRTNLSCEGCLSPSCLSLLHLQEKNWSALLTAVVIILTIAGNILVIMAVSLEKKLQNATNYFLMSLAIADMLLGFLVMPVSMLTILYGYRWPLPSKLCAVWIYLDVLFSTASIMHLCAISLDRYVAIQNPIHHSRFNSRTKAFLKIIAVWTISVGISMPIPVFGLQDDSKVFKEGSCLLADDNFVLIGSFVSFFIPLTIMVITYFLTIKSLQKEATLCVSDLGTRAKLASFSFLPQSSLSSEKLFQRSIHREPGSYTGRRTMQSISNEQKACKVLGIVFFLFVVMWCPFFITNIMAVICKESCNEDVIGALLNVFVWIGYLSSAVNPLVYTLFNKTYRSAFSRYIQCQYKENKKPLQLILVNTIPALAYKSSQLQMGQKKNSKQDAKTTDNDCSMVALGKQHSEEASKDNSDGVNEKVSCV
T7 sequence (P50406 whole entry): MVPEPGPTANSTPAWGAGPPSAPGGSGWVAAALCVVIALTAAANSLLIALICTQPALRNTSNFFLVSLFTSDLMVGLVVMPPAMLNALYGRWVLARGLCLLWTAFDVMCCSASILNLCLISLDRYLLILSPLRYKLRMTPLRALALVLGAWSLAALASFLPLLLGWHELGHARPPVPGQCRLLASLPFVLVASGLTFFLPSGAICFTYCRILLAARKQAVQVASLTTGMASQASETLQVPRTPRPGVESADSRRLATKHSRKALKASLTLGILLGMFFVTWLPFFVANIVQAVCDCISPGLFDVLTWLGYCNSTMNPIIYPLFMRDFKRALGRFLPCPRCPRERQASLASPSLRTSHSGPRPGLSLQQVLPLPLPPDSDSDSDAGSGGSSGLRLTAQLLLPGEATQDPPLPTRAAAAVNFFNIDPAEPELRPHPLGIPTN
T3 sequence (P34969 whole entry): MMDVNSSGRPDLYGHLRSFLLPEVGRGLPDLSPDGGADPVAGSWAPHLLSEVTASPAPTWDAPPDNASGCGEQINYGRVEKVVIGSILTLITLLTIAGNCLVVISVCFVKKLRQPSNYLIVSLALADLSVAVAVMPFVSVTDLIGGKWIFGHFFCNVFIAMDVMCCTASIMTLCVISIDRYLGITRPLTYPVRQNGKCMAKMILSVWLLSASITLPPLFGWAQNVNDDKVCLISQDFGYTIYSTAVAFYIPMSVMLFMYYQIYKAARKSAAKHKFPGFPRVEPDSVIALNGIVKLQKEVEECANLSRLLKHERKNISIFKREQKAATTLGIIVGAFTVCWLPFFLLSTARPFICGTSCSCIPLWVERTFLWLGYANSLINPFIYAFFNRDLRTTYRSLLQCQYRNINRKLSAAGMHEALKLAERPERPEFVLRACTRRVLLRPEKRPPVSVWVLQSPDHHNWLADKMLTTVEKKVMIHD
T1 sequence (P14416 whole entry): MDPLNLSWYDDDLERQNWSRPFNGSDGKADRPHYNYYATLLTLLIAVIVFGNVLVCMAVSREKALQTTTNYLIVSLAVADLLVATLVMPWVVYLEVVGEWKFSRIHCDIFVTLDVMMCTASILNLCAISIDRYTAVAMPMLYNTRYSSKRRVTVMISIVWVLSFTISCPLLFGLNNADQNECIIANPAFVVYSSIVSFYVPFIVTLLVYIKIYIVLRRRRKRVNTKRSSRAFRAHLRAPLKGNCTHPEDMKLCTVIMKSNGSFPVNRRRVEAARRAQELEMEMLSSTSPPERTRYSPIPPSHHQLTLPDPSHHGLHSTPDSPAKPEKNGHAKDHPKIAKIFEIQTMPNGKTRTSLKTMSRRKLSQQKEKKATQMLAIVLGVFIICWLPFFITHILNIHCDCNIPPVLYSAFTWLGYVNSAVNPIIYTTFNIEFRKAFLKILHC
T6 sequence (P35367 whole entry): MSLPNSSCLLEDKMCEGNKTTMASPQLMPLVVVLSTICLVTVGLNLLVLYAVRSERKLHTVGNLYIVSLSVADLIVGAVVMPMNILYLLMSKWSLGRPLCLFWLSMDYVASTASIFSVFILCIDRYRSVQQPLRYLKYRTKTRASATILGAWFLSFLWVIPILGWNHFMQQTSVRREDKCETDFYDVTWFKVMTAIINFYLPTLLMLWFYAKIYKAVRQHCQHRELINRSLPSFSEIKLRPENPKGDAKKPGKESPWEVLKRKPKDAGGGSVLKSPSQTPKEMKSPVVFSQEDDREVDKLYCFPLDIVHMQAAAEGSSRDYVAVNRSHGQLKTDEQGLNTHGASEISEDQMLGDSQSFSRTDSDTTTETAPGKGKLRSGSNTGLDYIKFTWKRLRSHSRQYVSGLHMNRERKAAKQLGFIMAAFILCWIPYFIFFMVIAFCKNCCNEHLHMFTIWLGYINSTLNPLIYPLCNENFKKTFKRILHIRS
T2 sequence (P25021 whole entry): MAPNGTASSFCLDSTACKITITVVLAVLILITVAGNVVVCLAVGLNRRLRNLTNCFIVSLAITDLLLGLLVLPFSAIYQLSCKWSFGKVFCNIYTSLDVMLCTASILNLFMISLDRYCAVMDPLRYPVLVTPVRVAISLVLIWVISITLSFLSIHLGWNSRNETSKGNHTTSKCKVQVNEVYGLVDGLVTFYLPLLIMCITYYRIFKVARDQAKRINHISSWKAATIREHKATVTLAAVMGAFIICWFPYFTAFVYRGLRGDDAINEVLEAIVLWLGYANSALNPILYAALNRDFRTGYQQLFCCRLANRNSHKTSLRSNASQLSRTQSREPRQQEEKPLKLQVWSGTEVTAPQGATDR

Regarding `Cc1ccc2c(c1)c1c(n2CCc2ccc(C)nc2)CCN(C)C1` [Dimebon, dimebon], in assay [1], the mitochondrial function entry is “improved mitochondrial function” and the “number of surviving cells” value is recorded as “increased the number of surviving cells”. Besides, the “death of brain cells (neurons)” value in the assay on brain cells (neurons) was “inhibit the death of brain cells (neurons)”. Also, the “neurite outgrowth and neurogenesis” value in the assay with neuronal cells was “promote neurite outgrowth and neurogenesis”.
In the case of `C/C(=C\n1c2c(c3cc(C)ccc31)CCN(C)C2C)c1ccc(Cl)cc1Cl` (stereo not drawn) [Compound 178], the inhibition at 1 µM worked out at 3% in assay [2]; 54% in assay [3]; 59% in assay [4]; 101% in [5]; 97% in assay [6]; 44% in assay [7]. The inhibition at 1 µM in assay [8] stood at 25%.
Consider `Cc1ccc2c(c1)c1c(n2C(=O)Cc2ccc(Cl)cc2)CN(C)CC1` [Compound 173], for which the inhibition at 1 µM in [2] is 22%; in assay [3], 49%; in [4], 81%; in assay [5] it was 90%; in assay [6], 95%; in assay [7], 12%. Besides, in [8], the inhibition at 1 µM was determined as 48%.
Consider `COc1ccc(C#Cn2c3c(c4cc(Cl)ccc42)CCN(C)C3)cc1F` [Compound 155, 6-chloro-9-((3-fluoro-4-methoxyphenyl)ethynyl)-2-methyl-2,3,4,9-tetrahydro-1H-pyrido[3,4-b]indole], for which the inhibition at 1 µM in assay [2] was 12%; in assay [3] it was 49%; in assay [4] it was 19%; in assay [5] it was 95%; in [6], 85%; in assay [7] it was 2%. Further, the inhibition at 1 µM in assay [8] worked out at 14%.
In the case of `C/C(=C/n1c2c(c3cc(C)ccc31)CCN(C)C2C)c1ccc(F)c(F)c1` (stereo not drawn) [Compound 175, 9-(2-(3,4-difluorophenyl)prop-1-enyl)-1,2,6-trimethyl-2,3,4,9-tetrahydro-1H-pyrido[3,4-b]indole], the inhibition at 1 µM in assay [2] was found to be 0%; in assay [3], 60%; in assay [4], 82%; in [5], 97%; in assay [6], 86%; in assay [7], 25%. Also, the inhibition at 1 µM in [8] was 77%.
As to `CCC1c2c(c3cc(C)ccc3n2/C=C(\C)c2ccc(Cl)c(Cl)c2)CCN1C` (stereo not drawn) [Compound 177, 9-(2-(3,4-dichlorophenyl)prop-1-enyl)-1-ethyl-2,6-dimethyl-2,3,4,9-tetrahydro-1H-pyrido[3,4-b]indole], the inhibition at 1 µM in assay [2] was 9%; in assay [3], 39%; in assay [4] it was 57%; in assay [5] it was 88%; in [6], 83%; in [7] it was 11%. In addition, the inhibition at 1 µM in assay [8] was 6%.
